From EP3057949B1, “SECONDARY ALCOHOL QUINOLINYL MODULATORS OF ROR GAMMA T” (Janssen Pharmaceutica NV, priority 2013, dated 2015)

Legend:
[1] = target: T1, human RORγt ligand binding domain (RORγt LBD) (Homo sapiens, UniProt P51449); experiment: ThermoFluor® Assay (RORγt thermal shift binding); conditions: 0.065 mg/mL RORγt, 60 µM 1,8-ANS, pH 7.0; estimated from concentration response curves
T1 construct: His-tag (N); TurboTEV protease cleavage site (ENLYFQG) (N); made in house; host or cells: E. coli (pHIS1, modified pET vector)
T1 sequence (P51449 258-518): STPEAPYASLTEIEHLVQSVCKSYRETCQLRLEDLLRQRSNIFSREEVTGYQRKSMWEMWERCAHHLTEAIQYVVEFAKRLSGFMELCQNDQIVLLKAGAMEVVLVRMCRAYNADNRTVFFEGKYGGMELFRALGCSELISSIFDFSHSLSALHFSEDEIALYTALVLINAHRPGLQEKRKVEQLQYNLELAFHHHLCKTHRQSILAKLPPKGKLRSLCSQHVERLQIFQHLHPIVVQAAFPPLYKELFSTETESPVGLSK
Procedure, shortened: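 Thermal shift of 0.065 mg/mL RORγt with 60 µM 1,8-ANS in 100 mM Hepes pH 7.0, 10 mM NaCl, 2.5 mM GSH, 0.002% Tween-20, heated at 1 °C/min; fluorescence at 500 nm. KD estimated from concentration-response of ΔTm.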

[2] = target: T2, full-length human RORγt (Homo sapiens, UniProt P51449); experiment: RORγt (full-length human) Reporter Assay (GAL4 luciferase, HEK293T cells); type: cell-based; conditions: for IC50: overnight (16 to 20 hours) incubation, read-out: RORγt (FL) Reporter Assay, IC50
T2 construct: expressed in transfected cells; host or cells: HEK293T
T2 sequence (P51449 1-497 isoform P51449-2): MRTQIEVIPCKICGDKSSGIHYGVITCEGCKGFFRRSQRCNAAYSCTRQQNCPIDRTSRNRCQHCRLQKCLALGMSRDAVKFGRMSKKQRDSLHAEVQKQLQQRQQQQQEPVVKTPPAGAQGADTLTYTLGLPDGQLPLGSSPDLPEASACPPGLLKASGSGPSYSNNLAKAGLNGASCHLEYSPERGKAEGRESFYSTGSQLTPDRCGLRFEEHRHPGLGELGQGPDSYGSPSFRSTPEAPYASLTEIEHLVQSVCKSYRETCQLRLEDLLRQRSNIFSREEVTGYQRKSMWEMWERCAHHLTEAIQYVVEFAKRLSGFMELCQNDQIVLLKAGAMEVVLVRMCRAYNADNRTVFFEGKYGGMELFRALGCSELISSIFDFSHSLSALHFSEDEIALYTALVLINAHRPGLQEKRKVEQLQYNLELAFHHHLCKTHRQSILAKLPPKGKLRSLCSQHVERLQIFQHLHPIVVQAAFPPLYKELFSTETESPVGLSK
Experimental: Compounds were assessed for RORgt functional modulation using either the RORgt ligand binding domain (LBD) reporter assay, or the RORgt full-length (FL) reporter assay.
A reporter assay was used to test functional activity of RORγt modulatory compounds on transcriptional activation driven by full-length human RORγt. Cells used in this assay were transiently co-transfected with three different plasmids, one expressing the GAL4-DNA binding domain (DBD)-RORγt fusion protein under control of a CMV promoter (NH2-Gal4-DBD:RORC-COOH in pCMV-BD, Stratagene #211342), and two reporter plasmids - the firefly luciferase reporter under control of a GAL4 promoter (pFR-Luc 2x GAL4) and Renilla luciferase reporter under control of CMV promoter (pRL-CMV, Promega #E2261). The full-length coding sequence was used for human RORγt, i.e., nucleotides 142-1635 of human RORγt, transcript variant 2, NCBI Accession: NM_001001523.1 (SEQ ID NO:1). HEK293T cells were plated at 35000 per well in 96-well plate in medium of MEM with 8.6% FBS. After 18-22 hours incubation, the transfection was carried out by using a PEI solution with 170.5 ng total DNA/well (50 ng pCMV-BD-ROR plus 20 ng of pFR-Luc reporter and 0.5 ng of pRL-CMV reporter plus 100 ng Carrier DNA (Clontech # 630440) for each well). 4-6 hours after transfection, cells were treated with compounds for overnight in the medium with final concentration of FBS 1.1% and DMSO 0.1%. After overnight (16 to 20 hours) incubation, media were removed and cells were lysed with 20 µL 1x Passive Lysis Buffer (Promega) for 10-15 minutes. Luminescence was measured using a BMG LUMIstar OPTIMA plate reader, after addition of 75 µL/well firefly luciferase buffer, followed by 75 µL/well Renilla luciferase buffer. To calculate the effect of compounds on RORγt activity, firefly values were normalized against values of DMSO only and values of reference compound at saturating concentration, then further normalized against Renilla signals. IC50s were generated by plotting final Renilla normalized data against compound concentration and percent inhibition was calculated against DMSO control.

Kd [1] [µM]	inhibition at 0.67 µM ([2]; HEK-293T, 0.67 µM compound concentration (footnote *), read-out: RORγt (FL) Reporter Assay, % inhibition (values marked *)) [%]	IC50 [2] [µM]	inhibition at 2 µM ([2]; HEK-293T, 2 µM compound, read-out: RORγt (FL) Reporter Assay, % inhibition @ 2 µM) [%]	Structure (SMILES)
0.069	85	0.091	–	COc1nc2ccc(C(O)c3cnc(C)n3C)cc2c(Cl)c1Cc1ccc(C(F)(F)F)cc1 (single isomer, unassigned) [Example 15b, (4-Chloro-2-methoxy-3-(4-(trifluoromethyl)benzyl)quinolin-6-yl)(1,2-dimethyl-1H-imidazol-5-yl)methanol]
0.04	–	0.058	96	COc1nc2ccc(C(O)c3cnc(C)n3C)cc2c(Cl)c1Cc1ccc(C(F)(F)F)cc1 (single isomer, unassigned) [Example 15c, (4-Chloro-2-methoxy-3-(4-(trifluoromethyl)benzyl)quinolin-6-yl)(1,2-dimethyl-1H-imidazol-5-yl)methanol]
